# Test results taken from paper PMC5379745, “Coordinating antigen cytosolic delivery and danger signaling to program potent cross-priming by micelle-based nanovaccine” (Cell Discovery, 2017).
# Experiments:
# TLR4 [1] = biological target: T1, TLR4 (Mus musculus, UniProt Q9JHF9+Q9QUK6); assay: MPLA activity assay (TNF-α ELISA); type: cell-based, mouse (RAW264.7 cells); conditions: RAW264.7 cells, 2 h, mean±s.d. n=4
# T1 construct: endogenous in cells; host or cells: RAW264.7 (mouse macrophage-like cell line)
# T1 sequence (Q9JHF9 19-160): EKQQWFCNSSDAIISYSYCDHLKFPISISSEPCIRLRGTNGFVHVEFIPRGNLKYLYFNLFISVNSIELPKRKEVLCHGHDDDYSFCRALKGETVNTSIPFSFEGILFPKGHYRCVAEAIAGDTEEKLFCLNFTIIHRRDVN
# T1 sequence (Q9QUK6 26-835): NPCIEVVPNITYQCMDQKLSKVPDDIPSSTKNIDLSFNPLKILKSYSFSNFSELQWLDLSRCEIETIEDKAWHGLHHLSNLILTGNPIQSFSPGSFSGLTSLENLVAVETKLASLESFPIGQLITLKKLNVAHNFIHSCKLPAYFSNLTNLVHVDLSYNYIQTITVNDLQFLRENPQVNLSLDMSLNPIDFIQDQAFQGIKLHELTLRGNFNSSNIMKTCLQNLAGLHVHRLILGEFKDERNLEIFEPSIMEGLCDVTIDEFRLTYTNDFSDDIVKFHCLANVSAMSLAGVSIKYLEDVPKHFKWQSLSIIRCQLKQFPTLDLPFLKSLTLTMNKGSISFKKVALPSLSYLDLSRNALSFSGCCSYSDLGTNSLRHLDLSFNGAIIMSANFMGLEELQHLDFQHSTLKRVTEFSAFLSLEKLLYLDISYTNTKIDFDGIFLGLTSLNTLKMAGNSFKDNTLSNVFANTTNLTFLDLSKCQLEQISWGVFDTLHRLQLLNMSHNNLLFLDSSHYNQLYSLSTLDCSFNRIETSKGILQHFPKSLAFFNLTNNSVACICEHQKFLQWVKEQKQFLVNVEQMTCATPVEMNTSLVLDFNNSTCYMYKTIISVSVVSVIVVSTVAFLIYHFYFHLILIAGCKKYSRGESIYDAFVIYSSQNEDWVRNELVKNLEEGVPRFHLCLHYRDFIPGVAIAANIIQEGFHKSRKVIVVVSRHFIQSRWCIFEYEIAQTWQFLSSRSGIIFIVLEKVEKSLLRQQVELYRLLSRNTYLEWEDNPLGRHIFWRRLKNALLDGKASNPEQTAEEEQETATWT
# Experimental: (§1) 0.5 mg/ml with deionized water. Particle sizes were shown as intensity-w eight ed diameters. The values were repo rted as the mean ± standard deviation (SD) based on more than three individual measurements performed in triplicate.
# (§2) […] RAW264.7 cells were seeded in 24-well plates overnight. Then, the cells were treated with 10, 100, 1000ng/ml MPLA, M-MPLA, Lipo/MPLA, PLA/MPLA, or PEG 2000 -DPG (1,2-dipalmitate-sn-gl yc e r o -3- O-[(polyethylene glycol)-2000]) micellized MPLA (DP-M-MP LA), PEG 2000 -L-DPG (1,2-dipalmitate-sn-gl yc e r o -3-(6-amido-2-aminohexanoyl ox y)-N-[(polyethylene glycol)-2000]) micellized MPLA (N-M-MPLA), respectively for 2 h prior to harvesting the supernatant. TLR4 activation was measured by the cumulative production of TNF-α using the mouse TNF-α ELISA kit (eBios cience, San Diego, CA, USA).
# (§3) M-MPL A activity assay in serum f ree mediu m or under LBP-blocking condition RAW264.7 cells were seeded and cultured overnight. Then the cells were either treated (1) with s erum-free medium (S FM) or (2) with LBP-blocking pepti de. (1): The cells were washed with SFM three times before experiment, then treated with 100ng/ml MP LA, M-MP LA, or LPS in the p resen ce o r abs ence of serum respectivel y; (2):The cells were treated with or without LBPK95A (LBPK95A sequence:
# (§4) added and incubated for 2h prior to harvesting the supernatant. TLR4 activation was […]
# [2] = cited from earlier work
# Excerpt: Both MPLA and LPS have very low critical micelle concentration to tend to form the micelle at 10^−9 mol concentration. Only their monomers can bind to the TLR4/MD-2 heterodimers, and after binding, two TLR4/MD-2 heterodimers form the TLR4/MD-2 heterotetramers for signaling transduction. As a chaperon, LBP in serum can induce disassembly of MPLA and LPS, and then transfer them with CD14 to their receptors (Supplementary Figure S3A; [36]). […] However, as a detoxic form of LPS, the adjuvant activity is also attenuated. […] One reason of PEG-PE micelles accounting for these may be its monomerization of MPLA. MPLA, as well as LPS, has very low critical micelle concentration (~10^−9 M), thus are usually present as aggregates [[32], ...
# TLR4 [3] = biological target: T1, TLR4; assay: M-MPLA activity assay in serum free medium or under LBP-blocking condition; type: cell-based, mouse (RAW264.7 cells); conditions: RAW264.7 cells, 2 h, serum-free medium or 100 μg/ml LBPK95A, ELISA
# Experimental: as §1, §2, §3, §4
# DC2.4 cells = assay: Confocal imaging of intracellular localisation of RhB-labeled peptides; type: cell-based, mouse (C57BL/6); conditions: 20 μM RhB-labeled peptide, 37 °C, 30 min (legend; text says 2 h), LysoTracker Green or EGFP-Rab5, confocal, three independent experiments
# Experimental: DC2.4 cells or EGFP-Rab5 expressing DC2.4 cells were seeded in 35 mm glass-bottom plates. After overnight culture, different formulations of indicated Rhodamine-labeled peptides (20 μM) were added and incubated at 37 °C for 30 min or 2 h. Then, 100 nM Lyso-Tracker Green or ER-Tracker Green (Life Technologies, Grand Island, NY, USA) was added and incubated for 5 or 20 min, respectively. The processes of PEG-PE inserting into cell membranes, peptide internalization and the co-localization of peptides with early endosome (Rab5), lysosome or ER were imaged using a confocal microscope LSM-700 (ZEISS, Germany).
# TC-1, a tumor cell line transformed from C57BL/6 primar y mouse lung cells, was kindly provided b y Dr. Xuemei Xu (Institute of Basic Medical Sciences Chinese Academ y of Medical Sciences & School of Basic Medicine, Peking Union Medical College, Beijing, China). DC2.4, an immortalized DC cell line derived from C57BL/6 mice, was kindl y provided by Dr. Li Tang (Ke y Laborator y of Protein Engineering, Academ y of Military Medical Sciences, Beijing, China). RAW 264.7, a macrophage like cell line derived from BALB/c mice, was purchased from the Type Culture Collection of the Chinese Academ y of Sciences (Shanghai, China). MC38 is a murine colon adenocarcinoma cell line. MC38- OVA was sorted and subcloned after MC38 cells were stable transduced with retrovirus expressing mouse […]–O T I.
# B16-F10 murine melanoma cell line was originally obtained from ATCC, catalog no.
# CRL-6475. All cells were cultured in complete RPMI1640 medium according to […]
# Preparation of PE G-PE micellized antigenic peptides
# Briefl y, peptides (HPV16 E7 43-62 , O VA 250-264 , sCT) or Rhodamine labeled peptides (RhB-peptide) were dissolved in methanol, respectivel y. Then the three peptides were respectively mixed with corresponding amount PEG 2000 -PE or FITC labeled PEG 2000 -PE(FITC-PP) which was dissolved in chloroform in a 1/10 molar ratio of peptide/PEG-PE. Then the peptide containing micelle were prepared as described in […]
# [4] = Circular dichroism (CD) spectroscopy of secondary structure; type: physicochemical; conditions: free peptide or PEG-PE micellized peptide
# [5] = In vivo imaging (IVIS) of lymphatic trafficking; design: species or system C57BL/6 mice; conditions: subcutaneous at tail base, 15 μmol FITC, 0 to 168 h
# Excerpt: C57BL/6 mice were subcutaneously injected with 15 μmol (FITC) of different FITC-labeled formulations (FITC, F-L, F-M) at tail base. The diffusion from injection sites was detected using an in vivo imaging system (IVIS) (Caliper life Sciences, Hopkinton, MA, USA). Spectrum unmixing technique was applied to reducing the effect of native tissue auto-fluorescence, separating detecting fluorescence and analyzing fluorescence diffusion. For imaging on inguinal and axillary LNs, LNs were excised and imaged at indicated time points. An image set (Ex: 500, Em: 540, f4, bin 8, 2 s) was collected. Living Image software Version 4.4 (Caliper Life Sciences, Waltham, MA, USA) was used to acquire and quantify the fluorescence imaging data sets.
# TC-1 cells = assay: Vaccination combined with cisplatin chemotherapy, TC-1 tumors; type: in vivo, C57BL/6 mice; conditions: cisplatin 5 mg/kg i.v. three times, vaccine s.c. three times, with high dose tumor re-challenge, n=10
# Experimental: To detect the LN targeting deliver y of pol ypeptide antigens by micelle, C57BL/6 mice were subcutaneousl y injected with 14.6 nmol different formulations of RhB labeled E7 peptide (E7, Pal-E7 and M-E7) at tail base. The DLNs were ex cised and digested into single cell suspension at 24h post-injection, the RhB+ DCs and Macrophages cells wer e detected b y flo w c ytom etr y.
# Vaccination combined with cisplatin chemotherapy
# C57BL/6 mice were inoculated subcutaneousl y with 5×10^4 TC-1 tumor cells. Two weeks later when the tumor volume reached 100 mm3 (day 0), tumor -bearing mice were treated with cisplatin (5mg/kg bod y weight) intravenousl y for three times at 5 days interval. On the same day of the last chemotherap y, mice were vaccinated subcutaneousl y with micelle vaccine or normal saline (NS) for three times at 7da ys interval. Tumor growth and tumor free rate was monitored twice per week.
# Vaccination co mbined w ith surgical operation
# C57BL/6 mice were injected subcutaneousl y on the right flank with 5×10^4 TC-1 tumor cells. One month later when the volume of tumor reached 1000mm 3 (day 0), mice were anesthetized and full resection was executed by excising the tumor using standard blunt dissection. Sterile silk sutures were used to close wounds.
# Accompanied b y wound closure, mice were vaccinated subcutaneousl y with micelle vaccine or NS for three times at 7 days interval. […]
# TLR4/MD-2 = biological target: T2, TLR4/MD-2 (Mus musculus, UniProt Q9JHF9+Q9QUK6); assay: TLR4/MD-2 heterotetramer formation detection (MTS510 staining); type: cell-based, mouse (RAW264.7 cells); conditions: RAW264.7 cells, 100 ng/ml, 15 min, 37 °C, flow cytometry
# T2 construct: endogenous in cells; host or cells: RAW264.7 (mouse macrophage-like cell line)
# T2 sequence (Q9JHF9 19-160): as the sequence (Q9JHF9 19-160) above
# T2 sequence (Q9QUK6 26-835): as the sequence (Q9QUK6 26-835) above
# Experimental: measured as describ ed ab ove.
# TLR4/MD-2 heterotetramer forma tion detecti on RAW264.7 cells were stimulated with 100ng/ml MPLA, M+MPLA, M -MPLA, or LPS for 15min at 37℃. Then the treated cells were put on ice and washed with PBS.
# After blocking with anti- FcγR mAb (2.4G2), the cells were incubated with one of the following antibodies: MTS510 PE, Rat IgG2a K isotype control PE. Finally, the cells were anal yz ed b y flow cyt ometr y (Calibur, BD Bioscience).
# Bone marrow dendritic cells (BMDC) g enera tion
# BMDCs are generated as described previously 2. Briefly, bone marrow (BM) cells were collected from tibias and femurs of female C57BL/6 mice. At da y 0, 2×10^6 BM cells were cultured in 100mm plate with 10ml complete RPMI 1640 medium containing 200 U/ml rmGM-CSF (PeproTech, Rocky Hill, NJ). At day 3, another 10 ml RPMI 1640 medium containing 200U/ml rmGM-CSF were added. At day 6, the immature BMDCs were collected and read y to us e.
# BMDCs or splenocytes from C57BL/6 mice were seeded in 96-well plates and cultured in the presence of 100 ng/ml different MPLA formulations (MPLA, M+MP LA, M- MPLA), or 10 μg empt y PEG -PE micelle. For RNA detection, BMDCs were collected 1h after stimulation. For protein detection, the supernatants were […]
compound,measurement,setting,value
Monophosphoryl lipid A [MPLA],MPLA concentration generating a comparable level of TNF-α,TLR4 [1],1 000 ng ml^−1
same,Critical micelle concentration,[2],~ 10^−9 M
same,Critical micelle concentration (concentration at which micelles tend to form),[2],10^−9 mol
same,TNF-α secretion in serum-free medium (without LBP) or with LBP-blocking peptide,TLR4 [3],could not efficiently stimulate macrophage to secret TNF-α
salmon calcitonin [sCT],Intracellular location of RhB-labeled peptide relative to lysosomes / endosomes,DC2.4 cells,contained within lysosomes
same,Secondary structure by CD spectroscopy,[4],non-α-helical peptides
"SGLEQLESIINFEKL [OVA peptide, OVA250-264 antigenic peptide]",Intracellular location of RhB-labeled peptide relative to lysosomes / endosomes,DC2.4 cells,largely outside lysosomes
"GQAEPDRAHYNIVTFCCKCD [E7, HPV16 E7_43-62 antigenic peptide, RhB-labeled for imaging]",Intracellular location of RhB-labeled peptide relative to lysosomes / endosomes,DC2.4 cells,contained within lysosomes
Fluorescein isothiocyanate [FITC],Diffusion from the injection site,[5],mostly stayed and largely retained around the injection sites even 7 days post injection
N.N.[Cl][Pt][Cl] [cisplatin],Mice remaining tumor-free at 3 months after treatment,TC-1 cells,none
lipopolysaccharide [LPS],Critical micelle concentration,[2],~ 10^−9 M
same,Critical micelle concentration (concentration at which micelles tend to form),[2],10^−9 mol
same,TNF-α secretion in serum-free medium (without LBP) or with LBP-blocking peptide,TLR4 [3],could not efficiently stimulate macrophage to secret TNF-α
same,MTS510 mAb reactive surface TLR4/MD-2 complex,TLR4/MD-2,dramatically downregulated MTS510 mAb reactive surface TLR4/MD-2 complex
